{"source": "paper PMC8550792", "about": "“Evolution of kinase polypharmacology across HSP90 drug discovery” (Cell Chemical Biology, 2021)", "test_in_all_cases": "biochemical", "assay_type_in_all_cases": "biochemical", "key": {"[1]": {"target": "T1, 382 unique human kinases (Homo sapiens, UniProt P21802, N549H)", "T1 construct": "purchased Reaction Biology (HotSpot contract assay)", "T1 sequence (P21802 22-821 N549H)": "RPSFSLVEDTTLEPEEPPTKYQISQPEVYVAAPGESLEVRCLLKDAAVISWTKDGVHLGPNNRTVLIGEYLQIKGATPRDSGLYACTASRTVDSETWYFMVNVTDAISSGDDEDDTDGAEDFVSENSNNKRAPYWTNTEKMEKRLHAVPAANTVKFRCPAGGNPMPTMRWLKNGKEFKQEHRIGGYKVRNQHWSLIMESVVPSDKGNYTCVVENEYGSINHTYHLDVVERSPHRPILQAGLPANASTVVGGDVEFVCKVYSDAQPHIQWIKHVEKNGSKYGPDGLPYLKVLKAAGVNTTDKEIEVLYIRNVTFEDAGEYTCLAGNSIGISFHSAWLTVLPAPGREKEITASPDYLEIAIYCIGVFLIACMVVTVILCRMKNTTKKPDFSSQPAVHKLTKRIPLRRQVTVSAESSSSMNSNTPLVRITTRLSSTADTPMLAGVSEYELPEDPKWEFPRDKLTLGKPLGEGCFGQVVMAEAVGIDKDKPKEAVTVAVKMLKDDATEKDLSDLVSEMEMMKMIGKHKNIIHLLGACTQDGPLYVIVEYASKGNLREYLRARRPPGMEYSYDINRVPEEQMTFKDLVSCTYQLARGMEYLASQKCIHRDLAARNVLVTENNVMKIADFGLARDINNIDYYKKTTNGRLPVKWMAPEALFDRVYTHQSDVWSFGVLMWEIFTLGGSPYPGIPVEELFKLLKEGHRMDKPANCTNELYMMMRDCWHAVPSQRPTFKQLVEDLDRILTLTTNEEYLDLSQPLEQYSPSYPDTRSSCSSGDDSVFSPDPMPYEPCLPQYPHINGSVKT", "conditions": "kinase FGFR2 (N549H), compound 10 uM; for remaining activity at 10 µM: read-out: % Enzyme Activity (relative to DMSO controls)"}, "[2]": {"target": "T2, 382 unique human kinases (Homo sapiens, UniProt P00533, D761Y)", "T2 construct": "purchased Reaction Biology (HotSpot contract assay)", "conditions": "kinase EGFR (D761Y), compound 10 uM; for remaining activity at 10 µM: read-out: % Enzyme Activity (relative to DMSO controls)"}, "[3]": {"target": "T3, 382 unique human kinases (Homo sapiens, UniProt O95835)", "T3 construct": "purchased Reaction Biology (HotSpot contract assay)", "T3 sequence (O95835 1-1130)": "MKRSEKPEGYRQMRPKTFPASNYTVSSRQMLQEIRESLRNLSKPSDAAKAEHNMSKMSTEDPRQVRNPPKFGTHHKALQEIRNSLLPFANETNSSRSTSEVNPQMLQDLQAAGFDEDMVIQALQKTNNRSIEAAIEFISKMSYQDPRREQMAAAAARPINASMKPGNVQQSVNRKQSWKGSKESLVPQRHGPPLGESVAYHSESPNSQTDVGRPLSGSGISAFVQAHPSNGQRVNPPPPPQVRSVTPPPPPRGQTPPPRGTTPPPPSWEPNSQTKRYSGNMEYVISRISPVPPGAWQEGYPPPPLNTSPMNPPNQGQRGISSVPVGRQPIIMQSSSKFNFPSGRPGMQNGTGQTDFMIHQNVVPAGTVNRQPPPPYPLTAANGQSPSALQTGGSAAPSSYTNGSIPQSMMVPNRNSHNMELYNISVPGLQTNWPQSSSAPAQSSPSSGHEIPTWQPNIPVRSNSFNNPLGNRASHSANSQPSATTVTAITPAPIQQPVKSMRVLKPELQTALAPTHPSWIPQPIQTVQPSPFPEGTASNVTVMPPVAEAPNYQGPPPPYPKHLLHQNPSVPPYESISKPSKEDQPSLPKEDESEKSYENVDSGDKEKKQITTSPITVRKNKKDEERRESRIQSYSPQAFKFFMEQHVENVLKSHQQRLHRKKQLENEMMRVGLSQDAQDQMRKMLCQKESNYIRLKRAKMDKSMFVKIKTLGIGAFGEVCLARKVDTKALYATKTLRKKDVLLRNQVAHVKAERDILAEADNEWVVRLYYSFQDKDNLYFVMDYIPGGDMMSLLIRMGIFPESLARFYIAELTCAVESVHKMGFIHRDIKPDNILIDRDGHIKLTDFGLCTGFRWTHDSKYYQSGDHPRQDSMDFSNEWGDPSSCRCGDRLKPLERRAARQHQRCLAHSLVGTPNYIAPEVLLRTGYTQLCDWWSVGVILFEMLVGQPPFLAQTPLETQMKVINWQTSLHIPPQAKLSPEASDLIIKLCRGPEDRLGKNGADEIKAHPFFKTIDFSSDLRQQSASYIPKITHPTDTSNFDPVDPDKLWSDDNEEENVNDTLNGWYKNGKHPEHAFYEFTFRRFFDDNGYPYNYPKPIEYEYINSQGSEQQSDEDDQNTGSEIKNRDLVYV", "conditions": "LATS1, 10 uM; for remaining activity at 10 µM: read-out: % Enzyme Activity (relative to DMSO controls)"}, "[4]": {"target": "T4, 382 unique human kinases (Homo sapiens, UniProt Q06187, C481S)", "T4 construct": "purchased Reaction Biology (HotSpot contract assay)", "T4 sequence (Q06187 whole entry C481S)": "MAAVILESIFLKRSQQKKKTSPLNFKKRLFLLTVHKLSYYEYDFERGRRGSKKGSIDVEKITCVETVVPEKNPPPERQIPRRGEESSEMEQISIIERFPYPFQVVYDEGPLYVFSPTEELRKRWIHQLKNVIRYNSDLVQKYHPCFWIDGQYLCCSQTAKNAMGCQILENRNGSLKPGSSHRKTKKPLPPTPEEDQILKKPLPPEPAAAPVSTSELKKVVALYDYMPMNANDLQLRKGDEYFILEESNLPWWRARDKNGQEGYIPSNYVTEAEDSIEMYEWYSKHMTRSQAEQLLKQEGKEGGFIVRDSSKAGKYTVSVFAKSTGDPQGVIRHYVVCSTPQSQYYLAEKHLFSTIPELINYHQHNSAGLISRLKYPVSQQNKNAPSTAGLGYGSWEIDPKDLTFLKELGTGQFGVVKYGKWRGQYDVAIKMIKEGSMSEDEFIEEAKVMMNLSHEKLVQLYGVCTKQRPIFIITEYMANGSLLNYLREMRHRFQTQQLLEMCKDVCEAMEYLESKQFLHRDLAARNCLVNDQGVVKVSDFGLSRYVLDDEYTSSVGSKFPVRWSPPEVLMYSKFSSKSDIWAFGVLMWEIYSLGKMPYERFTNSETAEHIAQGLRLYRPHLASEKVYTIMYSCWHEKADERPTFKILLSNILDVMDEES", "conditions": "BTK (C481S), [ATP] 15 µM, compound 10 uM; for remaining activity at 10 µM: read-out: % Enzyme Activity (relative to DMSO controls)"}, "[5]": {"target": "T5, 382 unique human kinases (Homo sapiens, UniProt P10721, D816F)", "T5 construct": "purchased Reaction Biology (HotSpot contract assay)", "T5 sequence (P10721 26-976 D816F)": "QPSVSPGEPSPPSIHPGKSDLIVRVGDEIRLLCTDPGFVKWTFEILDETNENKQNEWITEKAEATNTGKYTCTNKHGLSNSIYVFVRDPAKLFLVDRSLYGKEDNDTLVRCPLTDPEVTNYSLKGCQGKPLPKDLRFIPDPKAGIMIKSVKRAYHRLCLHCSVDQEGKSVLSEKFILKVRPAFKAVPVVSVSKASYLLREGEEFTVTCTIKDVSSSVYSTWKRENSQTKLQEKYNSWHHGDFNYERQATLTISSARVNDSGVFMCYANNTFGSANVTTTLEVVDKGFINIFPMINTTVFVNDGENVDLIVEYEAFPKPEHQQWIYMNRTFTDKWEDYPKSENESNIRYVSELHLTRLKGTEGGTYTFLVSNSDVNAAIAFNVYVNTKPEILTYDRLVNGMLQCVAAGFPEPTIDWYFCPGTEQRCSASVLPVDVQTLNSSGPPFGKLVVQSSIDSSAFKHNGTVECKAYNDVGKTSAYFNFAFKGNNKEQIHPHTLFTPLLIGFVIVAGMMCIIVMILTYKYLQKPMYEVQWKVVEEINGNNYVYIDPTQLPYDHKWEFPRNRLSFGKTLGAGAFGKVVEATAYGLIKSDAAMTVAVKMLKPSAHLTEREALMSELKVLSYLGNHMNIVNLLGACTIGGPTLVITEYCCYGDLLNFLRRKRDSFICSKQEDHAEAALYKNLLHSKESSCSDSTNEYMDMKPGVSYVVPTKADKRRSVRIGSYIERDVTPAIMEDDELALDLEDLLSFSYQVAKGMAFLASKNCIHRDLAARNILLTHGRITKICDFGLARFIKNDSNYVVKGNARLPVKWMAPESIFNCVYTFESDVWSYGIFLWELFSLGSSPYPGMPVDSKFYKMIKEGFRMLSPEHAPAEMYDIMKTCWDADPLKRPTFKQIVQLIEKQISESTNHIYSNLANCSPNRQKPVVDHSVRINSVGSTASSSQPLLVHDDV", "conditions": "c-Kit (D816F), [ATP] 20 µM, compound 10 uM; for remaining activity at 10 µM: read-out: % Enzyme Activity (relative to DMSO controls)"}, "[6]": {"target": "382 unique human kinases (Homo sapiens, UniProt Q9Y463)", "sequence (Q9Y463 whole entry)": "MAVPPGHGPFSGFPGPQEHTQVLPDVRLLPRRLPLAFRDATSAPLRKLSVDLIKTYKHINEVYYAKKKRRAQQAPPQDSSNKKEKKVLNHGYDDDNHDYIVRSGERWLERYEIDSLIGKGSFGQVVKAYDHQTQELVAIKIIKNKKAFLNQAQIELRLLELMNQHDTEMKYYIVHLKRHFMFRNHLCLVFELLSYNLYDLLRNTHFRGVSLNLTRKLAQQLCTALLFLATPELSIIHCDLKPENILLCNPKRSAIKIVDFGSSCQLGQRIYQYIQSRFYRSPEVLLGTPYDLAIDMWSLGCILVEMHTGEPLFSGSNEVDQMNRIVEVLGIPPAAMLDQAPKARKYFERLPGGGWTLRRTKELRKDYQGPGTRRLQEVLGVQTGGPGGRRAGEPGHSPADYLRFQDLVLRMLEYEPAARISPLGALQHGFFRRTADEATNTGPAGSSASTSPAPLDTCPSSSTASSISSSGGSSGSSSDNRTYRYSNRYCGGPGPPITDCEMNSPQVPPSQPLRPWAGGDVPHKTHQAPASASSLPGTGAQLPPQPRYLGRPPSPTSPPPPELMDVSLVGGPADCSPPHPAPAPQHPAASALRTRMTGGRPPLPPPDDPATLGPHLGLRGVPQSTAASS", "conditions": "DYRK1B, [ATP] 20 µM, compound 10 uM; for remaining activity at 10 µM: read-out: % Enzyme Activity (relative to DMSO controls)"}, "[7]": {"target": "T6, 382 unique human kinases (Homo sapiens, UniProt Q96PY6)", "T6 construct": "purchased Reaction Biology (HotSpot contract assay)", "T6 sequence (Q96PY6 1-1258)": "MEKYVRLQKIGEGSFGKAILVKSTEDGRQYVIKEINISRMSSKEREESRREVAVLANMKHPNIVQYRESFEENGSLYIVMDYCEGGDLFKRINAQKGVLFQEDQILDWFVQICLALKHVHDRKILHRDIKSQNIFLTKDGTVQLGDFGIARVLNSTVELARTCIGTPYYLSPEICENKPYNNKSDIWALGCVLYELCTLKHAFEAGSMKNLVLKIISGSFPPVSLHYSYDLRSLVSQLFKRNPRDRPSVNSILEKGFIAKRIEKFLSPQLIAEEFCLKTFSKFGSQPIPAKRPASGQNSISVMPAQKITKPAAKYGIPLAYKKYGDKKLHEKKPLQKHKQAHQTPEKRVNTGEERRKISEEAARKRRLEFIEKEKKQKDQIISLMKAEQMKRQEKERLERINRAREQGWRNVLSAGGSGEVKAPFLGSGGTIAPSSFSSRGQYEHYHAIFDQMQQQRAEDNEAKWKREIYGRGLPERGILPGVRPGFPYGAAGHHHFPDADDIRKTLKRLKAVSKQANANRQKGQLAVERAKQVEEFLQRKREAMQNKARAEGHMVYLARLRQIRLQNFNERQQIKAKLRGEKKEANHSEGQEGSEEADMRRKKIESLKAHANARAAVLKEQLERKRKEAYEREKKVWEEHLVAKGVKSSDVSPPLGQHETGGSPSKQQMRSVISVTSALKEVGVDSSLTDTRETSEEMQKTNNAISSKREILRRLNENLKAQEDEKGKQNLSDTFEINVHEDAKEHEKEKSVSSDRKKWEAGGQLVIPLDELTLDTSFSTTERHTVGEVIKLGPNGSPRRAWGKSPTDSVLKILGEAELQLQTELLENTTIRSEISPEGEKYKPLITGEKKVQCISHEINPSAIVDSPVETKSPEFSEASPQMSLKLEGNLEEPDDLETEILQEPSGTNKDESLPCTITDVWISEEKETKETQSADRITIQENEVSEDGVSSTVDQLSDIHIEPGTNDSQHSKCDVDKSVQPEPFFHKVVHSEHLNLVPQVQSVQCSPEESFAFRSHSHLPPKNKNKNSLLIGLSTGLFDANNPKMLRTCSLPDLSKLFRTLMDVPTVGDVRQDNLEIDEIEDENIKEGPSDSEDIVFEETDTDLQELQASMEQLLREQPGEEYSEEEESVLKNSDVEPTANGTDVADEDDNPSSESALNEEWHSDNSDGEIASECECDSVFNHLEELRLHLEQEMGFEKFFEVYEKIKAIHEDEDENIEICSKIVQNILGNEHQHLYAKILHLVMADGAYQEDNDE", "conditions": "NEK1, 10 uM; for remaining activity at 10 µM: read-out: % Enzyme Activity (relative to DMSO controls)"}}}
{"smiles": "CC(C)c1cc(-c2n[nH]c(=O)n2-c2ccc3c(ccn3C)c2)c(O)cc1O", "note": "[Ganetespib (STA9090)]", "values": [{"measurement": "remaining activity at 10 µM", "setting": "[1]", "result": 79.3, "unit": "%"}, {"measurement": "remaining activity at 10 µM", "setting": "[2]", "result": 90, "unit": "%"}]}
{"smiles": "CC(C)c1cc(-c2n[nH]c(=O)n2-c2ccc3c(ccn3C)c2)c(O)cc1O", "note": "[Ganetespib]", "values": [{"measurement": "remaining activity at 10 µM", "setting": "[3]", "result": 95.5, "unit": "%"}, {"measurement": "remaining activity at 10 µM", "setting": "[4]", "result": 65, "unit": "%"}, {"measurement": "remaining activity at 10 µM", "setting": "[5]", "result": 31, "unit": "%"}, {"measurement": "remaining activity at 10 µM", "setting": "[6]", "result": 45, "unit": "%"}, {"measurement": "remaining activity at 10 µM", "setting": "[7]", "result": 95.7, "unit": "%"}]}
{"smiles": "CCNC(=O)c1noc(-c2cc(C(C)C)c(O)cc2O)c1-c1ccc(CN2CCOCC2)cc1", "note": "[Luminespib (AUY-922)]", "values": [{"measurement": "% Enzyme Activity (relative to DMSO controls)", "setting": "[1]", "result": 106.42, "unit": "%"}, {"measurement": "remaining activity at 10 µM", "setting": "[1]", "result": 107, "unit": "%"}, {"measurement": "% Enzyme Activity (relative to DMSO controls)", "setting": "[2]", "result": 97.70, "unit": "%"}, {"measurement": "remaining activity at 10 µM", "setting": "[2]", "result": 98.1, "unit": "%"}]}
{"smiles": "CCNC(=O)c1noc(-c2cc(C(C)C)c(O)cc2O)c1-c1ccc(CN2CCOCC2)cc1", "note": "[Luminespib]", "values": [{"measurement": "% Enzyme Activity (relative to DMSO controls)", "setting": "[3]", "result": 98.44, "unit": "%"}, {"measurement": "remaining activity at 10 µM", "setting": "[3]", "result": 98.6, "unit": "%"}, {"measurement": "% Enzyme Activity (relative to DMSO controls)", "setting": "[4]", "result": 41.81, "unit": "%"}, {"measurement": "remaining activity at 10 µM", "setting": "[4]", "result": 43.2, "unit": "%"}, {"measurement": "% Enzyme Activity (relative to DMSO controls)", "setting": "[5]", "result": 70.41, "unit": "%"}, {"measurement": "remaining activity at 10 µM", "setting": "[5]", "result": 70.9, "unit": "%"}, {"measurement": "% Enzyme Activity (relative to DMSO controls)", "setting": "[6]", "result": 97.25, "unit": "%"}, {"measurement": "remaining activity at 10 µM", "setting": "[6]", "result": 98.9, "unit": "%"}, {"measurement": "% Enzyme Activity (relative to DMSO controls)", "setting": "[7]", "result": 102.76, "unit": "%"}, {"measurement": "remaining activity at 10 µM", "setting": "[7]", "result": 110, "unit": "%"}]}
